From US5874436A, “Triphenylalkyl antimicrobial agents” (priority 1997, dated 1999)
Converted amounts (≈) assume the structure as drawn.

Columns and labels:
[1] = test system: selected microorganisms; test: MIC antimicrobial assay (NCCLS microdilution broth method); assay type: cell-based
Experimental: 2. MIC Anitimicrobial Assay
The in vitro antimicrobial activity of the compounds was determined by the microdilution broth method following the test method from the National Committee for Laboratory Standards (NCCLS). This method is described in the NCCLS Document M7-A2, Vol.10, No.8 "Methods for Dilution Antimicrobial Susceptibility Test for Bacteria that Grow Aerobically--Second Edition."
In this method two-fold serial dilutions of drug in cation supplemented Mueller-Hinton broth are added to wells in microdilution trays. The test organisms are prepared by adjusting the turbidity of actively growing broth cultures so that the final concentration of test organism after it is added to the wells is approximately 5×10^4 CFUs/well).
Following inoculation of the microdilution trays, the trays are incubated at 35° C. for 16-20 hours and then read. […] The amount of growth in the wells containing the test compound is compared with the amount of growth in the growth-control wells (no test compound) used in each tray.

[2] = biological target: T1, Kinase A and Spo0F (Bacillus subtilis, UniProt P16497); test: Autophosphorylation of Kinase A and transphosphorylation of Spo0F assay (HPK in vitro assay); assay type: biochemical; details: inhibitor concentrations from 1 to 500 μM, [32P]ATP, phosphoimager
T1 construct: made in house; host or cells: E. coli (recombinant, overexpressing)
T1 sequence (P16497 1-606): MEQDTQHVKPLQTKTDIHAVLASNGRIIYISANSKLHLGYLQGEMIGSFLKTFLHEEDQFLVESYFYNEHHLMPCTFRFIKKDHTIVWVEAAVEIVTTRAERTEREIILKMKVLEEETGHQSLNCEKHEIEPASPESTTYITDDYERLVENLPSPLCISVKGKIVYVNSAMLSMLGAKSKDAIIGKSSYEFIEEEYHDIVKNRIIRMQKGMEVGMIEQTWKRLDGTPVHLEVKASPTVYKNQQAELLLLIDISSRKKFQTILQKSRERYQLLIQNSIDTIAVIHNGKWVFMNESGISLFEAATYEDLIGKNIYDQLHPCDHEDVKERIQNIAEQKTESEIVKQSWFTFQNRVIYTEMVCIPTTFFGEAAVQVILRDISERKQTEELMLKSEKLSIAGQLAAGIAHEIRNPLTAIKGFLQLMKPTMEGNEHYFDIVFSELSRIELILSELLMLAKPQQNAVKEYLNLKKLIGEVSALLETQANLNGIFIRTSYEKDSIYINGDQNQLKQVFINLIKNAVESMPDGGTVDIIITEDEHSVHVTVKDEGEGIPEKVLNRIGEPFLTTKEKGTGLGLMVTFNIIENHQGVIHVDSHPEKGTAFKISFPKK
Experimental: 1. Autophosphorylation of Kinase A and Transphosphorylation of Spo0F Assay
To study the effect of the compounds of the present invention on the signal transduction process in bacteria, the inhibiting effect of the compounds on the sporulation operon proteins Kinase A and Spo0F was examined. Specifically, the inhibition of autophosphorylation of Kinase A and the transphosphorylation of Spo0F was determined in the following assays. The Spo0F response regulator is the primary substrate for phosphorylation by the protein kinase, Kin A, involved in the sporulation process in bacteria. See D. Burbulys, K. A. Trach, J. A. Hoch, Cell, 64, 545-552 (1991). Spo0F and KinA were prepared from recombinant E. coli overexpressing the proteins (J. Cavanagh et al, Amino Acids, 6, 131-140 (1994) and references therein).
The following stock reagents were either prepared and used promptly or stored at the indicated temperature:
8 X Salts : 2M KCl (5 mL), 1M MgCl2 (800 mL), 1M CaCl2 (100 mL), 10 mg/mL phenylmethylsulfonyl fluoride (200 mL), 1 M dithioreitol (50 mL), 0.25M Na2 EDTA (32 mL) and H2 O mL (-20° C.)
5×Loading Dye: 0.5M TRIS-HCl-pH 6.8 (7.5 mL), 10% SDS (2 mL) 0.1% bromophenol blue (0.5 mL), 100% glycerol (3 mL) and 12.5 M 2-mercaptoethanol (0.3 mL)
1-1.3 mg/mL KinA:15 mM TRIS-HCl, pH 8.0, 6 mM KCl; 4 mM 2-mercaptoethanol; 40% glycerol (-20° C.)
1 mg/mL Spo0F: 17.5 mM TRIS-HCl, pH 8.0; 0.7 mM KCl; 0.7 mM MgCl2; 0.7 mM CaCl2; 5mM 2-mercaptoethanol; 30% Glycerol (-20° C.)
5% Stacking Gel: 40% 29:1 acrylamide:bis acrylamide (1.25 mL), 0.5M TRIS-HCl, pH 6.8 (2.5 mL), 10% SDS (0.1 mL), D-H2 O (6.15 mL) 10% ammonium persulfate (100 mL) and TEMED (25 mL) SDS Running Buffer: TRIS-BASE (3.02 g), glycine (14.4 g) SDS (1 g), D-H2 O (to 1L)
The reaction mixture was prepared from 8×Salts (87 μL), 1M TRIS, pH 8 (118 μL), 50% glycerol (63 μL), Spo0F (14.1 μL) and KinA (7.0 μL). Microcentrifuge tubes were charged with the reaction mixture (18.5 μL) and a 1.0 mM solution of the test compound in 5% DMSO (18.5 μL), and incubated for 15 min on ice. 100 mM ATP solution (3.0 μl, containing 625 μCi [^32 P]ATP) was added, and the mixture left for 10 minutes at room temperature. The reaction was quenched with 5×loading dye (10 μL per tube) and the samples were loaded on a prepared 5% Stacking Gel, or stored on dry ice until ready for use. The prepared wells were filled with SDS Running Buffer, samples were loaded into the wells, and 80 volts were applied to the gel until the dye front reached the bottom of the stacking gel. The voltage was then increased to 250 volts until electrophoresis was complete. Radioactive bands in the gel corresponding to phosphorylated KinA and Spo0F were imaged and quantitated with a phosphoimager.
If either enzyme was inhibited (as evidenced by the absence of labelled protein in the developed gel), an IC50 was calculated by running the assay with a range of inhibitor concentrations from 1 to 500 μM. After electrophoresis of the reaction mixtures, percent inhibition was determined by measuring the concentration of radioactive phosphorus with a phosphoimager and calculating the values using a software program (BioRad Molecular Analyst).

Structure (SMILES) | MIC [1] [µg/mL] | IC50 [2] [µM]
N=C(N)NCCc1ccc(OCCC(c2ccc(Cl)cc2)(c2ccc(Cl)cc2)c2ccc(Cl)cc2)cc1 [Example 9, N-(2-(4-(3,3,3-tris(4-chlorophenyl)propoxy)-phenyl)ethyl)guanidine] | 8 (≈ 14.5 µM) | 21
NCCc1ccc(NC(=O)CC(c2ccccc2)(c2ccccc2)c2ccccc2)cc1 [Example 16, N-[4-(2-Aminoethyl)phenyl]-3,3,3triphenylpropionamide] | 32 to 64 (≈ 76.1 to 152 µM) | 59
O=C(O)/C=C/c1ccc(OCCC(c2ccccc2)(c2ccccc2)c2ccccc2)cc1 [Example 22, trans 4-(3,3,3-Triphenylpropoxy)cinnamic acid] | 4 to 64 (≈ 9.21 to 147 µM) | 71
NCc1ccc2cc(OCCC(c3ccccc3)(c3ccccc3)c3ccccc3)ccc2c1 [Example 20, 6-(3,3,3-Triphenylpropoxy)-2-naphthylmethylamine] | 4 to 8 (≈ 9.02 to 18 µM) | 75
O=C(O)C(=Cc1ccc(OCCC(c2ccccc2)(c2ccccc2)c2ccccc2)cc1)C(=O)O [Example 31, [4-(3,3,3-Triphenylpropoxy)benzylidene]malonic acid] | > 128 | 54
N=C(N)NCCc1ccc(NC(=O)CC(c2ccccc2)(c2ccccc2)c2ccccc2)cc1 [Example 18, N-[4-(2-Guanidinoethyl)phenyl]-3,3,3-triphenylpropionamide] | 4 to 16 (≈ 8.65 to 34.6 µM) | 51
O=C(O)CCc1cccc(OCCC(c2ccccc2)(c2ccccc2)c2ccccc2)c1 [Example 35, 3-[3-(3,3,3-Triphenylpropoxy)phenyl]propionic acid] | 4 to 128 (≈ 9.16 to 293 µM) | 42
[Cl-].c1ccc(C(CCOc2ccc(C[n+]3ccccc3)cc2)(c2ccccc2)c2ccccc2)cc1 [Example 29, 1-{[4-(3,3,3-triphenylpropoxy)-phenyl]methyl}pyridinium chloride] | 2 to 4 | 6
O=C(O)Cc1ccc(OCCC(c2ccccc2)(c2ccccc2)c2ccccc2)cc1 [Example 13, 2-[4-(3,3,3-Triphenylpropoxy)phenyl]acetic acid] | 8 to 16 (≈ 18.9 to 37.9 µM) | 50
c1ccc(C(CCOc2ccc(Cc3nnn[nH]3)cc2)(c2ccccc2)c2ccccc2)cc1 [Example 32, 5-[4-(3,3,3-Triphenylpropoxy)phenyl]methyl-1H-tetrazole] | 8 to 64 (≈ 17.9 to 143 µM) | 19
O=C(O)CCc1ccc(SCCC(c2ccccc2)(c2ccccc2)c2ccccc2)cc1 [Example 14, 3-[4-(3,3,3-Triphenylpropylthio)phenyl]propionic acid] | 4 to 8 (≈ 8.84 to 17.7 µM) | 34
O=C(/C=C/c1ccc(OCCC(c2ccccc2)(c2ccccc2)c2ccccc2)cc1)NCCO [Example 25, trans N-(2-Hydroxyethyl)-4-(3,3,3-triphenylpropoxy)-cinnamide] | > 128 | 150
O=C(Cc1ccc(O)cc1)OCCC(c1ccccc1)(c1ccccc1)c1ccccc1 [Example 23, 3,3,3-Triphenylpropyl 2-(4-hydroxyphenyl)acetate] | > 128 | 170
N=C(N)NCCc1ccc(OCCCCC(c2ccccc2)(c2ccccc2)c2ccccc2)cc1 [Example 10] | 2 to 4 (≈ 4.19 to 8.37 µM) | 15
c1ccc(C(CCOc2ccc(CCc3nnn[nH]3)cc2)(c2ccccc2)c2ccccc2)cc1 [Example 27, 5-{2-[4-(3,3,3-Triphenylpropoxy)phenyl]ethyl}-1H-tetrazole] | 8 to 64 (≈ 17.4 to 139 µM) | 11
NCCc1ccc(OCCC(c2ccccc2)(c2ccccc2)c2ccccc2)cc1 [Example 3, 2-(4-(3,3,3-triphenylpropoxy)phenyl)ethylamine] | 2 to 4 (≈ 4.91 to 9.81 µM) | 14
C[N+](C)(C)Cc1ccc(OCCC(c2ccccc2)(c2ccccc2)c2ccccc2)cc1.[Cl-] [Example 33, N,N,N-Trimethyl-[4-(3,3,3-triphenylpropoxy)phenyl]methylammonium chloride] | 4 to 8 | 29
